Assay results taken from US20210230159A1, “4H-PYRIDO[1,2-A]PYRIMIDIN-4-ONE COMPOUNDS” (Prana Biotechnology Limited, priority 2014, published 2021).

Experiment: Hydrogen peroxide (H2O2) inhibition assay (fluorescence, DCF/horseradish peroxidase)
Assay type: biochemical
Details: for IC50: HCl salt tested where HCl salt MW is given; for Fe-ASC % (cf. 0.4 uM Fe/Asc; cf. CQ, CQ = 100%) / Cu % ASC (cf. CQ = 100%) / Zn % ASC (cf. CQ = 100%): ascorbic acid as reducing substrate; for Fe-ASC % (cf. 0.4 uM Fe/Asc; cf. CQ, CQ = 100%) / Fe-DA % (cf. 0.4 uM Fe/DA; cf. CQ, CQ = 100%): test compound 0.4 μM, lower values = greater inhibition of H2O2; for Fe-DA % (cf. 0.4 uM Fe/DA; cf. CQ, CQ = 100%): dopamine as reducing substrate
Description: Assay 1. Hydrogen Peroxide Assay
H2O2 is a strong oxidizer and a highly reactive oxygen species that is known to be toxic to surrounding proteins and organelles, inhibiting their function. […] […] H2O2 generated by the system is assessed by measuring the specific fluorescence profile at the excitation and emission wavelengths of 485 and 530 nm respectively, in the presence of test compound. Test compounds were dissolved in DMSO and tested at concentrations of 0.4 μM. Test compounds are ranked according to their capacity to inhibit H2O2 generated by the system where lower values reflect greater ability to inhibit H2O2 production.

IC50	Fe-ASC % (cf. 0.4 uM Fe/Asc; cf. CQ, CQ = 100%)	Cu % ASC (cf. CQ = 100%)	Zn % ASC (cf. CQ = 100%)	Fe-DA % (cf. 0.4 uM Fe/DA; cf. CQ, CQ = 100%)	SMILES
290 nM	86% ASC				CCCc1cnc2c(O)c(Cl)ccn2c1=O [Compound 1235]
720 nM	96% ASC				CCCCCCCCNC(=O)c1cnc2c(O)cccn2c1=O [Compound 1394]
1290 nM	39% ASC				COCc1cnc2c(O)cccn2c1=O [Compound 1398, 9-Hydroxy-3-(methoxymethyl)-4H-pyrido[1,2-a]pyrimidin-4-one]
330 nM	32% ASC				CCNCc1cc(=O)n2cccc(O)c2n1 [Compound 1400]
420 nM	55% ASC				CN(C)Cc1cc(=O)n2cccc(O)c2n1 [Compound 1401]
1680 nM	36% ASC				CCN1CCN(Cc2cc(=O)n3cccc(O)c3n2)CC1 [Compound 1402]
1700 nM	49% ASC				O=c1cc(CN2CCCCC2)nc2c(O)cccn12 [Compound 1403]
290 nM	35% ASC				CCCCNCc1cc(=O)n2cccc(O)c2n1 [Compound 1405]
1140 nM					O=c1cc(CNCc2ccc(Cl)cc2)nc2c(O)cccn12 [Compound 1406]
430 nM					CC(C)CNCc1cc(=O)n2cccc(O)c2n1 [Compound 1408, 9-Hydroxy-2-((isobutylamino)methyl)-4H-pyrido[1,2-a]pyrimidin-4-one hydrogen chloride]
140 nM					O=c1cc(CNCc2ccc(F)cc2)nc2c(O)cccn12 [Compound 1409]
430 nM	62% ASC				CCCCCCCCNCc1cc(=O)n2cccc(O)c2n1 [Compound 1410]
330 nM	36% ASC				O=c1cc(CNCC2CC2)nc2c(O)cccn12 [Compound 1411]
130 nM	29% ASC				O=c1cc(CNCCCN2CCOCC2)nc2c(O)cccn12 [Compound 1412]
190 nM	42% ASC				CCCCCNCc1cc(=O)n2cccc(O)c2n1 [Compound 1413]
< 100 nM	29% ASC				O=c1cc(CNCc2ccccn2)nc2c(O)cccn12 [Compound 1414]
< 100 nM	34% ASC				O=c1cc(CNCCc2ccccn2)nc2c(O)cccn12 [Compound 1415]
130 nM	29% ASC				O=c1cc(CNCCN2CCCC2)nc2c(O)cccn12 [Compound 1417]
240 nM	30% ASC				O=c1cc(CNCCN2CCOCC2)nc2c(O)cccn12 [Compound 1418]
680 nM	63% ASC				CCCCCNC(=O)c1cnc2c(O)cccn2c1=O [Compound 1422]
380 nM	45% ASC				CCCNC(=O)c1cnc2c(O)cccn2c1=O [Compound 1423]
800 nM	48% ASC				CN(C)Cc1cnc2c(O)cccn2c1=O [Compound 1424, 3-((Dimethylamino)methyl)-9-hydroxy-4H-pyrido[1,2-a]pyrimidin-4-one hydrogen chloride]
340 nM		Cu 212% ASC	Zn 69% ASC	76%	CC(C)CNC(=O)c1cnc2c(O)cccn2c1=O [Compound 1425]
320 nM		Cu 212% ASC	Zn 121% ASC	62%	O=C(NCCN1CCCC1)c1cnc2c(O)cccn2c1=O [Compound 1426]
180 nM		Cu 212% ASC	Zn 61% ASC	74%	O=C(NCCc1ccccn1)c1cnc2c(O)cccn2c1=O [Compound 1427]
430 nM		Cu 212% ASC	Zn 74% ASC	75%	O=C(NCC1CC1)c1cnc2c(O)cccn2c1=O [Compound 1428]

IC50	Fe-ASC % (cf. 0.4 uM Fe/Asc; cf. CQ, CQ = 100%)	Cu % ASC (cf. CQ = 100%)	Zn % ASC (cf. CQ = 100%)	Fe-DA % (cf. 0.4 uM Fe/DA; cf. CQ, CQ = 100%)	SMILES
390 nM		Cu 54% ASC	Zn 57% ASC	148%	O=C(NCc1ccc(Cl)cc1)c1cnc2c(O)cccn2c1=O [Compound 1429]
410 nM	65% ASC			66%	O=C(NCc1ccc2c(c1)OCO2)c1cnc2c(O)cccn2c1=O [Compound 1432]
390 nM	152% ASC			73%	CCNC(=O)c1cnc2c(O)cccn2c1=O [Compound 1433]
230 nM	133% ASC			90%	O=c1cc(CNC2CCCC2)nc2c(O)cccn12 [Compound 1435]
210 nM	190% ASC			101%	O=C(NC1CCCC1)c1cnc2c(O)cccn2c1=O [Compound 1436]
470 nM	71% ASC			71%	O=C(NCc1ccc(F)cc1F)c1cnc2c(O)cccn2c1=O [Compound 1437]
240 nM	143% ASC			47%	CCCCCCNCc1cc(=O)n2cccc(O)c2n1 [Compound 1438]
> 10000 nM	156% ASC			68%	CCN(CC)Cc1cc(=O)n2cccc(O)c2n1 [Compound 1439]
690 nM	66% ASC			48%	CCCCCCNC(=O)c1cnc2c(O)cccn2c1=O [Compound 1440]
240 nM	128% ASC			58%	O=c1cc(CNCc2ccccc2)nc2c(O)cccn12 [Compound 1442]
250 nM	116% ASC			52%	COc1ccc(CNCc2cc(=O)n3cccc(O)c3n2)cc1 [Compound 1443]
350 nM	105% ASC			53%	O=c1cc(CNc2ccc(F)cc2F)nc2c(O)cccn12 [Compound 1444]
< 100 nM	176% ASC			45%	CNC(=O)c1cnc2c(O)cccn2c1=O [Compound 1445]
340 nM	218% ASC			56%	O=C(NCc1cccnc1)c1cnc2c(O)cccn2c1=O [Compound 1446]
240 nM	112% ASC			52%	O=C(NCc1ccccn1)c1cnc2c(O)cccn2c1=O [Compound 1447]
460 nM	137% ASC			66%	O=c1cc(CNc2cccnc2)nc2c(O)cccn12 [Compound 1448]
380 nM	126% ASC			55%	O=C(NCc1ccncc1)c1cnc2c(O)cccn2c1=O [Compound 1450]
580 nM	136% ASC			67%	O=c1cc(CNc2ccc(F)cc2)nc2c(O)cccn12 [Compound 1451]
540 nM	60% ASC			49%	O=C(NCc1ccc(Cl)cc1Cl)c1cnc2c(O)cccn2c1=O [Compound 1452]
340 nM	79% ASC			59%	O=C(NCc1ccc(C(F)(F)F)cc1)c1cnc2c(O)cccn2c1=O [Compound 1453]
1000 nM	65% ASC			46%	O=C(NCc1ccc(F)c(F)c1)c1cnc2c(O)cccn2c1=O [Compound 1454]
350 nM	82% ASC			47%	O=c1cc(CNCc2ccc(C(F)(F)F)cc2)nc2c(O)cccn12 [Compound 1455]
390 nM	122% ASC			58%	O=c1cc(CNC2CCCCC2)nc2c(O)cccn12 [Compound 1456]
580 nM	137% ASC			43%	O=c1cc(CNCC2CCCCC2)nc2c(O)cccn12 [Compound 1458]
330 nM	110% ASC			48%	O=c1cc(CNCc2ccc(F)c(F)c2)nc2c(O)cccn12 [Compound 1459]
490 nM	59% ASC			57%	O=C(NCC1CCCCC1)c1cnc2c(O)cccn2c1=O [Compound 1461]

SMILES	IC50	Fe-ASC % (cf. 0.4 uM Fe/Asc; cf. CQ, CQ = 100%)	Cu % ASC (cf. CQ = 100%)	Zn % ASC (cf. CQ = 100%)	Fe-DA % (cf. 0.4 uM Fe/DA; cf. CQ, CQ = 100%)
O=C(NC1CCCCC1)c1cnc2c(O)cccn2c1=O [Compound 1460, N-cyclohexyl-9-hydroxy-4-oxo-4H-pyrido[1,2-a]pyrimidine-3-carboxamide]	440 nM	92% ASC			29%
